For orientation: melting point means the temperature, or range, at which the solid turns liquid.

These results are taken from patent US20020132817A1, “Heterocyclic compounds, their production and use” (priority 1998, published 2002).

In turn, `Cc1ccc(-c2c3n(c(=O)c4ncccc24)CCC(C)CN(Cc2cc(C(F)(F)F)cc(C(F)(F)F)c2)C3=O)cc1` (racemic) [Reference Example 70, (+/−)-7-[3,5-Bis(trifluoromethyl)benzyl]-6,7,8,9,10,11-hexahydro-9-methyl-5-(4-methylphenyl)-6,13-dioxo-13H-[1,4]diazocino[2,1-g][1,7]naphthyridine] came in with a melting point of 280 to 281 °C.

In turn, `Cc1ccc(-c2c3n(c(=O)c4ncccc24)CCN(Cc2cc(C(F)(F)F)cc(C(F)(F)F)c2)C3=O)cc1` [Reference Example 55, 7-[3,5-Bis(trifluoromethyl)benzyl]-6,7,8,9-tetrahydro-5-(4-methylphenyl)-6,11-dioxo-11H-pyrazino[2,1-g][1,7]naphthyridine] yielded a melting point of 270 to 271 °C.

With `O=C1c2c(-c3ccccc3)ccnc2OCCN1Cc1cc(C(F)(F)F)cc(C(F)(F)F)c1` [Reference Example 65, 4-[3,5-Bis(trifluoromethyl)benzyl]-2,3,4,5-tetrahydro-5-oxo-6-phenylpyrido[3,2-f][1,4]oxazepine], the melting point lay within 200 to 201 °C.

In the case of `Cc1ccc(-c2c3n(c(=O)c4ncccc24)CC[C@@H](C)CN(Cc2cc(C(F)(F)F)cc(C(F)(F)F)c2)C3=O)cc1` [Reference Example 72, (9R)-7-[3,5-Bis(trifluoromethyl)benzyl]-6,7,8,9,10,11-hexahydro-9-methyl-5-(4-methylphenyl)-6,13-dioxo-13H-[1,4]diazocino[2,1-g][1,7]naphthyridine], the melting point is 226 to 228 °C.

With `C[C@H]1CCn2c(c(-c3ccccc3)c3cccnc3c2=O)C(=O)N(Cc2cc(C(F)(F)F)cc(C(F)(F)F)c2)C1` [Reference Example 73, (9S)-7-[3,5-Bis(trifluoromethyl)benzyl]-6,7,8,9,10,11-hexahydro-9-methyl-6,13-dioxo-5-phenyl-13H-[1,4]diazocino[2,1-g] [1,7]naphthyridine], the melting point lay within 242 to 244 °C.

Regarding `Cc1ccc(-c2c3n(c(=O)c4ncccc24)CC[C@H](C)CN(Cc2cc(C(F)(F)F)cc(C(F)(F)F)c2)C3=O)cc1` [Reference Example 74, (9S)-7-[3,5-Bis(trifluoromethyl)benzyl]-6,7,8,9,10,11-hexahydro-9-methyl-5-(4-methylphenyl)-6,13-dioxo-13H-[1,4]diazocino[2,1-g][1,7]naphthyridine], the melting point is 227 to 228 °C.

`O=C1c2c(-c3ccccc3)ccnc2NCCN1Cc1cc(C(F)(F)F)cc(C(F)(F)F)c1` [Reference Example 75, 4-[3,5-Bis(trifluoromethyl)benzyl]-2,3,4,5-tetrahydro-5-oxo-6-phenyl-1H-pyrido[2,3-e][1,4]diazepine] came in with a melting point of 242 to 243 °C.

In the case of `Cc1cnc2c(c1-c1ccccc1)C(=O)N(Cc1cc(C(F)(F)F)cc(C(F)(F)F)c1)C[C@@H](C)CO2` [Reference Example 86, (R)-5-[3,5-Bis(trifluoromethyl)benzyl]-2,3,4,5-tetrahydro-3,8-dimethyl-6-oxo-7-phenyl-6H-pyrido[2,3-b][1,5]oxazocine], the melting point is 147 to 149 °C.

Regarding `Cc1cc(-c2ccccc2)c2c(n1)OCCCN(Cc1cc(C(F)(F)F)cc(C(F)(F)F)c1)C2=O` [Reference Example 88, 5-[3,5-Bis(trifluoromethyl)benzyl]-2,3,4,5-tetrahydro-9-methyl-6-oxo-7-phenyl-6H-pyrido[2,3-b][1,5]oxazocine], the melting point was in the range of 164 to 165 °C.

For the molecule `CSCc1cc(-c2ccccc2)c2c(n1)OCCN(Cc1cc(C(F)(F)F)cc(C(F)(F)F)c1)C2=O` [Reference Example 96, 4-[3,5-Bis(trifluoromethyl)benzyl]-2,3,4,5-tetrahydro-8-methylthiomethyl-5-oxo-6-phenylpyrido[3,2-f][1,4]oxazepine], the melting point lay in the range of 165 to 166 °C.

For the molecule `NCc1cc(-c2ccccc2)c2c(n1)OCCN(Cc1cc(C(F)(F)F)cc(C(F)(F)F)c1)C2=O` [Reference Example 97, 8-Aminomethyl-4-[3,5-bis(trifluoromethyl)benzyl]-2,3,4,5-tetrahydro-5-oxo-6-phenylpyrido[3,2-f][1,4]oxazepine], the melting point lay in the range of 188 to 191 °C.

In the case of `CNCc1cc(-c2ccccc2)c2c(n1)OCCN(Cc1cc(C(F)(F)F)cc(C(F)(F)F)c1)C2=O` [Reference Example 98, 4-[3,5-Bis(trifluoromethyl)benzyl]-2,3,4,5-tetrahydro-8-methylaminomethyl-5-oxo-6-phenylpyrido[3,2-f][1,4]oxazepine], the melting point lay in the range of 152 to 154 °C.

`CC(=O)NCc1cc(-c2ccccc2)c2c(n1)OCCN(Cc1cc(C(F)(F)F)cc(C(F)(F)F)c1)C2=O` [Reference Example 102, 8-Acetylaminomethyl-4-[3,5-bis(trifluoromethyl)benzyl]-2,3,4,5-tetrahydro-5-oxo-6-phenylpyrido[3,2-f][1,4]oxazepine] yielded a melting point of 223 to 224 °C.

For the molecule `CS(=O)(=O)NCc1cc(-c2ccccc2)c2c(n1)OCCN(Cc1cc(C(F)(F)F)cc(C(F)(F)F)c1)C2=O` [Reference Example 103, 4-[3,5-Bis(trifluoromethyl)benzyl]-2,3,4,5-tetrahydro-8-methanesulfonylaminomethyl-5-oxo-6-phenylpyrido[3,2-f][1,4]oxazepine], the melting point was in the range of 194 to 195 °C.

In turn, `Cc1cnc2c(c1-c1ccccc1)C(=O)N(Cc1cc(C(F)(F)F)cc(C(F)(F)F)c1)CCN(C)C2=O` [Reference Example 104, 6-[3,5-Bis(trifluoromethyl)benzyl]-5,6,7,8,9,10-hexahydro-3,9-dimethyl-5,10-dioxo-4-phenylpyrido[2,3-f][1,4]diazocine] returned a melting point of 203 to 205 °C.

The molecule `CN1CCN(Cc2cc(C(F)(F)F)cc(C(F)(F)F)c2)C(=O)c2c(-c3ccccc3)ccnc2C1=O` [Reference Example 105, 6-[3,5-Bis(trifluoromethyl)benzyl]-5,6,7,8,9,10-hexahydro-9-methyl-5,10-dioxo-4-phenylpyrido[2,3-f][1,4]diazocine] yielded a melting point of 167 to 169 °C.

Take `Cc1cnc2c(c1-c1ccccc1)C(=O)N(Cc1ccccc1)CCN(C)C2=O` [Reference Example 106, 6-Benzyl-5,6,7,8,9,10-hexahydro-3,9-dimethyl-5,10-dioxo-4-phenylpyrido[2,3-f][1,4]diazocine]: the melting point lay within 183 to 184 °C.

Take `CCN1CCN(Cc2cc(C(F)(F)F)cc(C(F)(F)F)c2)C(=O)c2c(ncc(C)c2-c2ccccc2)C1=O` [Reference Example 107, 6-[3,5-Bis(trifluoromethyl)benzyl]-9-ethyl-5,6,7,8,9,10-hexahydro-3-methyl-5,10-dioxo-4-phenylpyrido[2,3-f][1,4]diazocine]: the melting point lay in the range of 228 to 229 °C.

Regarding `Cc1cnc2c(c1-c1ccccc1)C(=O)N(Cc1cc(C(F)(F)F)cc(C(F)(F)F)c1)CCCN(C)C2=O` [Reference Example 108, 6-[3,5-Bis(trifluoromethyl)benzyl]-6,7,8,9,10,11-hexahydro-3,10-dimethyl-5,11-dioxo-4-phenyl-5H-pyrido[2,3-g][1,5]diazonine], the melting point lay in the range of 247 to 249 °C.

Take `CNC(=O)c1cc(-c2ccccc2)c2c(n1)OCCN(Cc1cc(C(F)(F)F)cc(C(F)(F)F)c1)C2=O` [Reference Example 112, 4-[3,5-Bis(trifluoromethyl)benzyl]-N-methyl-2,3,4,5-tetrahydro-5-oxo-6-phenylpyrido[3,2-f][1,4]oxazepine-8-carboxamide]: the melting point is 145 °C (dec.).

`CN(C)C(=O)c1cc(-c2ccccc2)c2c(n1)OCCN(Cc1cc(C(F)(F)F)cc(C(F)(F)F)c1)C2=O` [Reference Example 113, 4-[3,5-Bis(trifluoromethyl)benzyl]-N,N-dimethyl-2,3,4,5-tetrahydro-5-oxo-6-phenylpyrido[3,2-f][1,4]oxazepine-8-carboxamide]: the melting point is 235 to 236 °C.

In turn, `CCCCNC(=O)c1cc(-c2ccccc2)c2c(n1)OCCN(Cc1cc(C(F)(F)F)cc(C(F)(F)F)c1)C2=O` [Reference Example 114, 4-[3,5-Bis(trifluoromethyl)benzyl]-N-n-butyl-2,3,4,5-tetrahydro-5-oxo-6-phenylpyrido[3,2-f][1,4]oxazepine-8-carboxamide] gave a melting point of 194 to 196 °C.

`O=C(c1cc(-c2ccccc2)c2c(n1)OCCN(Cc1cc(C(F)(F)F)cc(C(F)(F)F)c1)C2=O)N1CCCCC1` [Reference Example 115, 4-[3,5-Bis(trifluoromethyl)benzyl]-2,3,4,5-tetrahydro-5-oxo-6-phenyl-8-piperidinocarbonylpyrido[3,2-f][1,4]oxazepine] registered a melting point of 218 to 220 °C.

`O=C(c1cc(-c2ccccc2)c2c(n1)OCCN(Cc1cc(C(F)(F)F)cc(C(F)(F)F)c1)C2=O)N1CCOCC1` [Reference Example 116, 4-[3,5-Bis(trifluoromethyl)benzyl]-2,3,4,5-tetrahydro-8-morpholinocarbonyl-5-oxo-6-phenylpyrido[3,2-f][1,4]oxazepine] showed a melting point of 265 to 266 °C.

Molecule `COc1cc(CN2CCOc3nccc(-c4ccccc4)c3C2=O)cc(OC)c1OC` [Reference Example 118, 2,3,4,5-Tetrahydro-5-oxo-6-phenyl-4-(3,4,5-trimethoxybenzyl)pyrido[3,2-f][1,4]oxazepine] returned a melting point of 177 to 179 °C.

Regarding `O=C1c2c(-c3ccccc3)ccnc2OCCN1Cc1ccc(Cl)c(Cl)c1` [Reference Example 119, 4-(3,4-Dichlorobenzyl)-2,3,4,5-tetrahydro-5-oxo-6-phenylpyrido[3,2-f][1,4]oxazepine], the melting point was 189 to 192 °C.

The molecule `COc1ccc(CN2CCOc3nccc(-c4ccccc4)c3C2=O)cc1OC` [Reference Example 120, 4-(3,4-Dimethoxybenzyl)-2,3,4,5-tetrahydro-5-oxo-6-phenylpyrido[3,2-f][1,4]oxazepine] returned a melting point of 175 to 176 °C.

Molecule `O=C1c2c(-c3ccccc3)ccnc2OCCN1Cc1ccccc1` [Reference Example 121, 4-Benzyl-2,3,4,5-tetrahydro-5-oxo-6-phenylpyrido[3,2-f][1,4]oxazepine] displayed a melting point of 209 to 211 °C.

Molecule `COc1cc(CN2CCCOc3nccc(-c4ccccc4)c3C2=O)cc(OC)c1OC` [Reference Example 122, 2,3,4,5-Tetrahydro-6-oxo-7-phenyl-5-(3,4,5-trimethoxybenzyl)-6H-pyrido[2,3-b][1,5]oxazocine] yielded a melting point of 155 to 156 °C.
